Test results reported in article PMC12041881, “Tailored phenyl ureas eradicate drug-resistant Mycobacterium tuberculosis by targeting mycolic acid cell wall assembly” (Chemical Science, 2025).
pIC50: −log10 of the molar value.

What was measured:
[1] = tested on: 227-resistant mutants of M. tuberculosis H37rv; format: cell-based
M. tuberculosis H37Rv = format: cell-based
[2] = tested on: MmpL3 over- (+ATc) expressing Mtb H37Rv; format: cell-based, M. tuberculosis

O=C(Nc1ccc(Cl)c(C(F)(F)F)c1)NC1CCCCC1 [Compound 227]
pIC50 [1]: 5.48 | estimated frequency of resistance (M. tuberculosis H37Rv): 1.5 × 10^−7

CC[C@@H](CO)NCCN[C@@H](CC)CO [Ethambutol]
susceptibility shift in MmpL3 over-expressing strain [2]: no significant shifts
